Test results published in patent US12465605B2, “Methods and materials for gender-dependent treatment of cardiovascular dysfunction” (Mayo Foundation for Medical Education and Research, priority 2019, dated 2025).

Assays:
[1] = test system: patients with mild-to-moderate calcific aortic valve stenosis; experiment: Phase I clinical trial, 14 days, blood pressure and orthostatic tolerance; format: in vivo, human
Source text: Phase I clinical trial design: Patients with mild-to-moderate calcific aortic valve stenosis (valve area between 1.0 cm^2 and 2.0 cm^2) with well-preserved left ventricular function (ejection fraction>50%) were recruited for participation in a randomized, double-blind, placebo-controlled trial. After screening, patients were randomized into two groups: • (1) placebo treatment for 14 days, or • (2) ataciguat treatment for 14 days. Patients underwent a series of tests to assess baseline blood pressure (seated and supine body positions), orthostatic tolerance (transition to standing, tilt table testing), and blood tests to assess liver enzyme function.
Combining ataciguat's role as an activator of heme-free sGC with reports of increased systemic oxidative stress in patients with FCAVS (Mourino-Alvarez et al., Int. J Cardiol., 225:99-106 (2016)), it was conceivable that administration of ataciguat could elicit acute hypotension or increase propensity to experience orthostatic hypotension. To investigate this possibility, a randomized, double-blind, placebo-controlled, dose-escalation study was conducted to assess the effects of ataciguat on orthostatic tolerance using both a standing test (highly functional) and a tilt table test (highly sensitive).

[2] = test system: ldlr^−/−/apoB^100/100 mice; experiment: ldlr-deficient, apoB100-only mice on western diet with established aortic valve disease (FCAVS); format: in vivo, mouse; settings: for relative collagen fiber thicknesses: picrosirius red
Source text: Pre-clinical animal studies: ldlr^−/−/apoB^100/100 mice are low density lipoprotein receptor-deficient, apolipoprotein B100-only mice that consistently develop severe, hemodynamically significant calcific aortic valve stenosis. Thus, these mice develop stenosis in a manner suitable for studying the effects of pharmacological interventions on initiation and progression of calcific aortic valve stenosis.
Two groups of ldlr^−/−/apoB^100/100 mice were placed on Western Diet (WD) for six months, a time point that allowed the mice to develop mild-to-moderate valvular stenosis. At the six-month time point, mice were randomized into two groups: • (1) continued western diet (WD)/continued disease progression group, or • (2) continued western diet+ataciguat in food (WD+ATA)/treatment group.
At the nine-month time point, mice underwent echocardiography (high resolution ultrasound) and blood pressure (tail cuff) measurement, and were sacrificed for tissue and molecular analyses of valvular tissue (histology, immunohistochemistry, quantitative real-time RT-PCR).
A therapeutically-relevant treatment strategy in which ldlr-deficient, apoB100-only mice were fed a western diet for six months (to develop mild/moderate FCAVS) followed by western diet plus ataciguat (150 ppm mixed in food).

[3] = test system: patients with mild-to-moderate calcific aortic valve stenosis; experiment: Phase II clinical trial, six months, progression of valve disease; format: in vivo, human
Source text: Phase II clinical trial design: Patients with mild-to-moderate calcific aortic valve stenosis (valve area between 1.0 cm^2 and 2.0 cm^2) with well-preserved left ventricular function (ejection fraction>50%) and significant valve calcification (calcium levels>300 units by computed tomography scanning) were recruited for participation in a randomized, double-blind, placebo-controlled trial. After screening, patients were randomized into two groups: • (1) placebo treatment for a minimum of 6 months, or • (2) ataciguat treatment for a minimum of 6 months Patients underwent computed tomography measurements of aortic valve calcification, echocardiographic assessments of ventricular and aortic valve function, and DEXA scanning for assessment of systemic bone mineral density at baseline and at six month intervals after initiation of treatment.
LPA studies in humans with aortic valve calcification: Human plasma LPA levels were measured using a colorimetric, sandwich/quantitative ELISA assay (AB212165) after samples were diluted in diluent buffer. Computed tomography scanning was performed using clinical grade, high-resolution scanning methods that are well-established for assessment of aortic valve calcification. The calcium burden was measured from 3-dimensional, multi-slice images and expressed as arbitrary units (AU).
To determine whether ataciguat could slow progression of FCAVS, a randomized, double-blind, placebo-controlled study was conducted in patients with mild/moderate valvular disease. Key eligibility criteria for the study included valvular calcium levels above 300 AU, a valve area between 1.0 and 2.0 cm^2, an ejection fraction greater than 50%, and absence of congenital heart valve disease (full inclusion/exclusion criteria is shown in TABLE 1). Patients were randomized to placebo or ataciguat treatment for six months, and a subset of patients received treatment for 12 months. Importantly, there was no difference in measured hemodynamic, blood biochemistry, drug treatment, or comorbidity indices between treatment groups at baseline. Given the relatively short duration of follow-up, the primary outcome variable was the change in valvular calcium over time. Secondary and tertiary outcomes were aortic valve and left ventricular function, respectively.

[4] = 14 days, vs pre-treatment or placebo
[5] = 200 mg/day, all subjects combined
[6] = 200 mg/day, both sexes combined

O=C(Nc1ccc(S(=O)(=O)N2CCOCC2)cc1)c1cc(Cl)ccc1NS(=O)(=O)c1ccc(Cl)s1 [ataciguat, 5-chloro-2-[[(5-chloro-2-thienyl)sulfonyl]amino]-N-[4-(4-morpholinylsulfonyl)phenyl]-benzamide]
seated systolic and diastolic blood pressure ([1]; 100 mg/day, 14 days): significantly reduced | seated systolic and diastolic blood pressure ([1]; 200 mg/day, 14 days): did not have a significant effect | supine systolic and diastolic blood pressure ([1]; 14 days): significantly reduced | changes in heart rate upon standing ([1]; 14 days, seated to standing): did not significantly or consistently alter | changes in systolic and diastolic blood pressure upon standing ([1]; 14 days, seated to standing): did not significantly or consistently alter | blood pressure responses to head-up tilt [1, 4]: did not consistently or significantly alter | heart rate responses to head-up tilt [1, 4]: did not consistently or significantly alter | resting blood pressure ([1]; either dose, 14 days): did not significantly alter | tolerability (side effects and blood pressure regulation) ([1]; humans): well tolerated | ejection fraction ([2]; WD-fed mice, male and female): not improved further | canonical TGFβ signaling (SMAD2/3 phosphorylation) in valve tissue ([2]; both male and female mice): increased | Col1a1 expression (mRNA) ([2]; female mice): significantly reduced | expression of Col15a1 (mRNA) ([2]; female mice): tended to be reduced | relative collagen fiber thicknesses ([2]; female mice): increase the fraction of thinner fibers | aortic valve function (cusp separation distance by echocardiography), male versus female ([2]; long-term treatment): only male mice received a therapeutic benefit | calcification in valve tissue ([2]; male and female animals): reduced | SMAD1/5/8 phosphorylation in valve tissue ([2]; male and female mice, three months): significantly attenuated | markers of osteogenesis Runx2 and SPP1 (mRNA) ([2]; male and female mice, three months, RT-PCR): reduced | diastolic function (E/e′) ([2]; male mice): significantly improved | expression of Col15a1 (mRNA) ([2]; male mice): increased | expression of collagen 1a1 (mRNA) ([2]; male mice): did not significantly affect | valvular calcium, male versus female ([2]; male mice compared with female mice): Greater reductions in valvular calcium | progression of valvular dysfunction and associated reductions in left ventricular diastolic function ([2]; male mice only, long-term treatment): significantly attenuated | relative collagen fiber thicknesses ([2]; male mice): did not impact | MMP2 expression ([2]; male or female mice): not altered | pVASP^239 in aortic valve tissue ([2]; mice of both genders, 150 ppm in food, immunohistochemistry): significantly increased | blood pressure ([2]; mice of either gender, 150 ppm in food): did not alter | expression of the SMAD2/3 target genes CTGF and COL1A1 ([2]; only in female mice): paradoxically reduced | changes in aortic valve area, male versus female patients ([3]; 200 mg/day): therapeutic benefit was predominantly conferred to male patients | changes in peak transvalvular velocity ([3]; 200 mg/day): negligible impact | aortic pulse pressure (index of arterial stiffness), seated [3, 5]: attenuated | left ventricular diastolic function (E/e′ or E/A ratio) [3, 5]: attenuate further progression of diastolic dysfunction | left ventricular systolic function (ejection fraction or stroke volume) [3, 5]: prevent the decline in left ventricular function | changes in aortic valve area [3, 6]: can attenuate progression of aortic valve dysfunction | progression of valve calcification [3, 6]: significantly attenuated | left ventricular stroke volume ([3]; 200 mg/day, female subjects): potential worsening | left ventricular systolic function ([3]; 200 mg/day, female subjects): no consistent benefit | left ventricular diastolic function (E/e′ or E/A ratio) ([3]; 200 mg/day, females): negligible therapeutic benefit | pulse pressure ([3]; 200 mg/day, females): no apparent therapeutic benefit | progression of valve calcification, male versus female patients ([3]; 200 mg/day, male patients compared to females): much greater therapeutic benefit | left ventricular diastolic function (E/e′ or E/A ratio) ([3]; 200 mg/day, male subjects): predominant recipients of any therapeutic benefit | left ventricular systolic function (ejection fraction or stroke volume) ([3]; 200 mg/day, male subjects): improved left ventricular systolic function | pulse pressure ([3]; males, compared to placebo): reduction in pulse pressure | aortic valve function vs baseline ([3]; p=0.24 vs baseline): did not worsen significantly | changes in valvular calcium in relation to baseline plasma LPA ([3]; patients with higher vs lower baseline plasma LPA): tended to receive greater therapeutic benefit
